Experimental findings from US10155749B2, “Substituted benzimidazolium compounds useful in the treatment of respiratory diseases” (Boehringer Ingelheim International GmbH, priority 2015, dated 2018) are described below.

Series [1] in a line: Permeability in CALU-3 cells. It is filed as in vitro ADME. To be noted: human, CALU-3 monolayers, pH 7.4, 37° C., 10 μM compound; for Papp A→B at 90 min, 10 μM: apical-to-basal; for Papp B→A at 90 min, 10 μM: basal-to-apical. The method, then:
Permeability in CALU-3 Cells:
Permeability measurements across polarized, confluent CALU-3 cell monolayers grown on permeable filter supports are used to provide information on the potential of a compound to pass the lung epithelium. Apparent permeability coefficients (Papp) of the compounds across the CALU-3 cell monolayers are measured (pH 7.4, 37° C.) in apical-to-basal (AB) and basal-to-apical (BA) transport direction.
CALU-3 cells (1-2×10^5 cells/1 cm^2 area) are seeded on filter inserts (Costar transwell polycarbonate filters, 0.4 μm pore size) and cultured (for 10-12 days DMEM) until tight monolayers are formed. Compounds of interest are dissolved in appropriate solvent (DMSO, 10 mM stock solution). Stock solutions are diluted with HTP-4 buffer (128.13 mM NaCl, 5.36 mM KCl, 1 mM MgSO4, 1.8 mM CaCl2, 4.17 mM NaHCO3, 1.19 mM Na2HPO4×7H2O, 0.41 mM NaH2PO4×H2O, 15 mM HEPES, 20 mM glucose, 0.25% BSA, pH 7.4) to prepare the transport solutions (10 μM compound, final DMSO<=0.5%). The transport solution (TL) is applied to the apical or basolateral donor side for measuring A-B or B-A permeability (3 filter replicates), respectively. The receiver side contains the same buffer as the donor side. After 30 min of accommodation, samples are collected at the start t0=0 min and at the end of the experiment tn=90 min from the donor and at 0, 30, 60, and 90 min also from the receiver chamber. Volume removed is […] by HTP-4 buffer. The compound concentration in the samples is measured by HPLC-MS/MS or scintillation counting. The permeability coefficient (Papp) and efflux ratio are calculated according to: Papp [cm/s]=(concentration receiver [nM]*volume receiver [mL]/time interval [sec])*(1/filter area)*(1/donor concentration [nM]).

The target of series [2] is T1, ENaC (Epithelial Sodium Channel) (Mus musculus, UniProt Q61180+Q9WU38+Q9WU39).
T1 construct: Mouse kidney M-1 cells were cultivated in DMEM containing 5% FCS and 5 μM dexamethasone; endogenous in cells; host or cells: Mouse kidney M-1 cells
T1 sequence (Q61180 1-699): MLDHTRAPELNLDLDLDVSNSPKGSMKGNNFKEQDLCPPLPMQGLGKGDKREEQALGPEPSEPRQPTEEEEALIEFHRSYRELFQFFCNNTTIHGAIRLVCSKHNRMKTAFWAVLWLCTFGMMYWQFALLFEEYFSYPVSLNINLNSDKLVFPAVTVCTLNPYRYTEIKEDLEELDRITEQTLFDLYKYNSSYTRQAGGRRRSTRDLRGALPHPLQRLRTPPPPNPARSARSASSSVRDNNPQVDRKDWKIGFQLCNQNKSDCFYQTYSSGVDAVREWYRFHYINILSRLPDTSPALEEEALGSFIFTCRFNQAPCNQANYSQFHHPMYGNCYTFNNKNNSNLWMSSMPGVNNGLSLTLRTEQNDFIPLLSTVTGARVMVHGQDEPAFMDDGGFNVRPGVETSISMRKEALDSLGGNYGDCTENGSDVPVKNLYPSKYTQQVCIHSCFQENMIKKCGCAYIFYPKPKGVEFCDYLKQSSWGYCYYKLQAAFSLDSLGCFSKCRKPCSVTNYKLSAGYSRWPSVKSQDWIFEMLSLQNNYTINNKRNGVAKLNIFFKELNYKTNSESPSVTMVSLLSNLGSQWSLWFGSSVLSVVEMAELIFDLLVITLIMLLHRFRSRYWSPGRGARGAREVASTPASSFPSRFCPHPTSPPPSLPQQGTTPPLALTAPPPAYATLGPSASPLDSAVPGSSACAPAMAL
T1 sequence (Q9WU38 1-638): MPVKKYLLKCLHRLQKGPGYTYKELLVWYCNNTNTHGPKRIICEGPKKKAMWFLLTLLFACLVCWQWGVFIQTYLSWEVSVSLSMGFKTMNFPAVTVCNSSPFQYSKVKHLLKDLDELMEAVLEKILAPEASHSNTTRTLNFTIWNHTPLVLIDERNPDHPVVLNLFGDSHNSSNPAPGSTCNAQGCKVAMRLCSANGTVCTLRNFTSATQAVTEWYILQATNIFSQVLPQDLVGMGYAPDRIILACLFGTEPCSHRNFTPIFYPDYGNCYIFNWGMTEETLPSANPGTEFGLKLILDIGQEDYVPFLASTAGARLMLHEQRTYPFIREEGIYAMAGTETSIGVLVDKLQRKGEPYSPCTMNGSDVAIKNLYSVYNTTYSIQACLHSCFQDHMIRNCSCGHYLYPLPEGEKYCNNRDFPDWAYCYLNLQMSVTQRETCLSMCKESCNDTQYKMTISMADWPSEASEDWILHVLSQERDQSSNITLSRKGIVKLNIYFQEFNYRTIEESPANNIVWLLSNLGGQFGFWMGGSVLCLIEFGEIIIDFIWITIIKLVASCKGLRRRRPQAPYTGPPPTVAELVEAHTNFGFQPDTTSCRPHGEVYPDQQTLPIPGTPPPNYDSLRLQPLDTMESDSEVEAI
T1 sequence (Q9WU39 1-655): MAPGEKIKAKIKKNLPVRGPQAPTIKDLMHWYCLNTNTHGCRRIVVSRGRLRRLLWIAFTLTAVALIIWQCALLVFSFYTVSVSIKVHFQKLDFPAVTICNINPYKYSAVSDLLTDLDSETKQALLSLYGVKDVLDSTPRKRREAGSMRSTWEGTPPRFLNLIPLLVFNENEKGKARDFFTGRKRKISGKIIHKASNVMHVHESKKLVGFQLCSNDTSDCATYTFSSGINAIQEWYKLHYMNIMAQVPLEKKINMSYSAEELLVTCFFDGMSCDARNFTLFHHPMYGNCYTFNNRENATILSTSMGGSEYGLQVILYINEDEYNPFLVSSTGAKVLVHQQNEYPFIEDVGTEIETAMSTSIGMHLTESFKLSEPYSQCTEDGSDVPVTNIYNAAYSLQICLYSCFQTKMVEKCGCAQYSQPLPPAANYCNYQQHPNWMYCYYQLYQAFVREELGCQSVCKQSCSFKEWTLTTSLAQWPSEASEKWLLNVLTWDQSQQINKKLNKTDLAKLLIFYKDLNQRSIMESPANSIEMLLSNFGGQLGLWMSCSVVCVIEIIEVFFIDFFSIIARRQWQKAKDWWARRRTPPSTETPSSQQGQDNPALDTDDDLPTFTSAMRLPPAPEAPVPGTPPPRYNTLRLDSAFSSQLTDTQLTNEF
Briefly: Ussing Chamber assay (short circuit current, amiloride sensitive I_SC) in M-1 cells. It is filed as cell-based. To be noted: Mouse kidney M-1 cells, apical application, 37° C. The method, then: The IC50 values of the example compounds given above were determined in the Ussing Chamber assay.
Ussing Chamber: Mouse kidney M-1 cells were cultivated in DMEM containing 5% FCS and 5 μM dexamethasone for 10 to 12 days on polyester transwell filters. Filters were inserted into a teflon-coated well-plate which fit into the ussing chamber system. Prior to measurement the medium of M-1 cells was replaced with Caco-2 transport buffer (Invitrogen, Germany). During measurements, the Ussing chamber temperature was kept at 37° C. Short circuit currents (I_sc) were measured in the voltage-clamp mode with the software package Lab View for data acquisition and analysis. The transepithelial electrical resistance (TEER) was determined by the application of voltage steps of ±5 mV every 5 sec. Compounds were administered at a final concentration of 3 μM or at increasing concentrations (1-3-10 μM) to the apical solution. At the end of each experiment the amiloride sensitive I_SC was measured by adding 3 μM amiloride to the apical compartment. Results are expressed as inhibition in percent of the amiloride effect or as IC50.

Usually Papp A→B stands for how fast a substance crosses the layer from the apical side. High values mean ready permeation, low ones poor permeation. For orientation: Papp B→A means how fast a substance crosses the layer from the basolateral side. For orientation: IC50 means the point on the concentration scale where inhibition reaches its midpoint. A low value points to greater potency. In series [1], `CCCCCOc1cc2c(cc1C(=O)N1CCN(C(=O)Cc3ccccn3)CC1)[n+](CC)c(CNC(=O)c1nc(Cl)c(N)nc1N)n2C[C@H](C)O.O=C([O-])C(F)(F)F` [Example 4.15] returned a Papp A→B at 90 min, 10 μM of 0.3 ×10⁻⁶ cm/s and a Papp B→A at 90 min, 10 μM of 0.3 ×10⁻⁶ cm/s. This molecule showed an IC50 in series [2] of 34 nM.
In series [1], `CCCCCCN(C)C(=O)c1cc2c(cc1O[C@H]1COC[C@@H]1O)n(CCO)c(CNC(=O)c1nc(Cl)c(N)nc1N)[n+]2CC.O=C([O-])C(F)(F)F` [Example 1.15] gave an apical-to-basolateral permeability (Papp A→B) at 90 min, 10 μM of 0.2 ×10⁻⁶ cm/s and a Papp B→A at 90 min, 10 μM of 0.08 ×10⁻⁶ cm/s. Moreover, 8 nM corresponded to half-maximal inhibition in series [2] (IC50).
As for `CC[n+]1c(CNC(=O)c2nc(Cl)c(N)nc2N)n(C[C@H](C)O)c2cc(N(C)C)c(C(=O)N3CCN(C(=O)OC(C)(C)C)CC3)cc21.O=C([O-])C(F)(F)F` [Example 1.02], in series [1], the Papp A→B at 90 min, 10 μM amounted to 0.08 ×10⁻⁶ cm/s and the apparent permeability from basolateral to apical (Papp B→A) at 90 min, 10 μM was found to be 0.1 ×10⁻⁶ cm/s. In series [2], this molecule returned an IC50 of 25 nM.
For `CCOCCNC(=O)c1cc2c(cc1N1CCOCC1)n(CC)c(CNC(=O)c1nc(Cl)c(N)nc1N)[n+]2CC.[Cl-]` [Example 5.01], in that order: 0.3 ×10⁻⁶ cm/s, 0.06 ×10⁻⁶ cm/s and 5 nM.
In series [1], `CCn1c(CNC(=O)c2nc(Cl)c(N)nc2N)[n+](CC)c2ccc(C(=O)NCCN(C)C)cc21.Cl.[Cl-]` [Example 3.06] showed a Papp A→B at 90 min, 10 μM of 0.02 ×10⁻⁶ cm/s and a basolateral-to-apical permeability (Papp B→A) at 90 min, 10 μM of 0.03 ×10⁻⁶ cm/s. Besides, the IC50 in series [2] was found to be 1 nM.
In series [1], `CCn1c(CNC(=O)c2nc(Cl)c(N)nc2N)[n+](CC)c2ccc(OCCNC(=O)CCN(C)C)cc21.Cl` [Example 4.01] displayed a Papp A→B at 90 min, 10 μM of 0.2 ×10⁻⁶ cm/s and a Papp B→A at 90 min, 10 μM of 0.2 ×10⁻⁶ cm/s. In series [2], this molecule yielded an IC50 of 1 nM.
In series [1], `CC[n+]1c(CNC(=O)c2nc(Cl)c(N)nc2N)n(CC2CC2)c2cc(OCC(=O)N(C)Cc3nc(C)ccc3O)ccc21` [Example 1.08] gave a Papp A→B at 90 min, 10 μM of 0.08 ×10⁻⁶ cm/s and a Papp B→A at 90 min, 10 μM of 0.2 ×10⁻⁶ cm/s. For the same molecule, half-maximal inhibition in series [2] (IC50) required 1 nM.
In series [1], `CCn1c(CNC(=O)c2nc(Cl)c(N)nc2N)[n+](CC)c2cc(C(=O)N3CCOCC3)c(N3CCOCC3)cc21` [Example 5.02] had a Papp A→B at 90 min, 10 μM of 0.09 ×10⁻⁶ cm/s and a Papp B→A at 90 min, 10 μM of 0.1 ×10⁻⁶ cm/s. The molecule also had an IC50 in series [2] of 3 nM.
In series [1], `CC[n+]1c(CNC(=O)c2nc(Cl)c(N)nc2N)n(CC2CCCCC2)c2cc(OCCOP(=O)(O)CCC[N+](C)(C)C)ccc21` [Example 1.12] gave a Papp A→B at 90 min, 10 μM of 0.1 ×10⁻⁶ cm/s and a Papp B→A at 90 min, 10 μM of 0.04 ×10⁻⁶ cm/s. In addition, the IC50 in series [2] is 8 nM.
As for `CCn1c(CNC(=O)c2nc(Cl)c(N)nc2N)[n+](CC)c2ccc(OCCNC(=O)[C@H](C)NC)cc21.Cl.[Cl-]` [Example 6.02], in series [1], the Papp A→B at 90 min, 10 μM is 0.08 ×10⁻⁶ cm/s and the apparent permeability from basolateral to apical (Papp B→A) at 90 min, 10 μM turned out to be 0.06 ×10⁻⁶ cm/s. The molecule further gave an IC50 in series [2] of 1 nM.
With `CCNC(=O)c1cc2c(cc1OCC(=O)NCCN(C)C)n(CC)c(CNC(=O)c1nc(Cl)c(N)nc1N)[n+]2CC.Cl.[Cl-]` [Example 3.17], in series [1], the apparent permeability from apical to basolateral (Papp A→B) at 90 min, 10 μM turned out to be 0.08 ×10⁻⁶ cm/s and the Papp B→A at 90 min, 10 μM was found to be 0.08 ×10⁻⁶ cm/s. This molecule also registered an IC50 in series [2] of 15 nM.
